# Data as given in patent US20050265999A1, “Modulation of 5-HT2 receptors as a treatment for cardiovascular diseases” (Myogen, Inc., priority 2003, published 2005).
# System: 5-HT1
# Experiment: Radioligand receptor binding assay
# Method: Receptor binding assays. Receptor binding assays were performed by MDS Pharma services. Assays included: Adenosine A1 (cat# 200510), Adenosine A2A (cat# 200610), Adenosine A3 (cat# 200720), Adrenergic alpha 1 (cat# 203500), Imidazoline 12 central (cat# 241000), Imidazoline I2 peripheral (cat# 241100), Inositol triphosphate (cat# 242500), Phorbol Ester (cat# 264500), 5-HT 2B (cat# 271700), and 5-HT 4 (cat# 272000).
# • Summary of radioligand binding assays for 11 receptors. Data represent % inhibition of ligand binding in the presence of 10 μM 18264 (n=2).
# • Summary of radioligand binding assays for three receptors. Data represent % inhibition of ligand binding in the presence of 10 μM 20068 (n=2).
smiles,measurement,setting,value
"Cc1c(-c2ccccc2)nc2sc3c(c2c1N)CCCC3 [Compound 18264, 3-Methyl-2-phenyl-5,6,7,8-tetrahydro-benzo[4,5]thieno[2,3-b]pyridin-4-ylamine]",% Inhibition of Binding,"10 μM compound, n=2",−25%
same,binding (in words),"radioligand binding, 10 μM",No significant binding
